Measured values: patent US20240390369A1, “METHODS FOR DETERMINING RESPONSIVENESS TO TYK2 INHIBITORS” (Bristol-Myers Squibb Company, priority 2021, published 2024)
Where “and” joins values, the source holds several entries; their conditions need not be identical. Equal entries are not always repeated.

Test system: patients with psoriatic arthritis
Assay: Phase 2 trial in psoriatic arthritis: PASI75 response at week 16
Format: in vivo, human
Settings: for Number of subjects: 12 mg QD
Protocol: In a double-blind Phase 2 trial, 203 patients with psoriatic arthritis were randomized into three groups: deucravacitinib 6 mg once daily (N=70), deucravacitinib 12 mg once daily (N=67), or placebo (N=66). All subjects had active psoriatic arthritis according to the Classification Criteria for Psoriatic Arthritis (CASPAR); for active disease, these criteria required ≥3 tender joint count, ≥3 swollen joint count, and a C-reactive protein level above 3 mg/L. Other inclusion criteria included the following: presence of at least one plaque psoriasis lesion, and prior treatment failure with a non-biologic disease modifying anti-rheumatic drug, a non-steroidal anti-inflammatory drug, or a steroid. With respect to treatment history, approximately 70% of subjects had not received prior treatment with a biologic and were biologic naïve, while up to 30% of subjects had failed or had been intolerant to one TNF-inhibitor (TNF=Tumor necrosis factor, also known as TNFα). Randomization was stratified by prior TNF-inhibitor use (experienced/naïve) and body weight (<90 kg and ≥90 kg).
Clinical measures included the Psoriasis […] (PASI) score for skin psoriasis, American College of Rheumatology 20 (ACR20) response, Psoriatic Arthritis Disease Activity Score (PASDAS), Health Assessment Questionnaire-Disability Index (HAQ-DI), and Disease Activity Score 28 CRP (DAS28). To evaluate the predictive value of different protein measurements for the clinical response to deucravacitinib, baseline protein concentrations for responders and non-responders, as defined by ACR20 or PASI75 at week 16, were compared for each arm (placebo, 6 mg deucravacitinib once-daily, and 12 mg deucravacitinib once-daily).
In addition, a logistic regression model was fit, to determine whether baseline disease score (dichotomized by the median baseline score, into baseline score high and baseline score low groups) was associated with response status. The model generated an odds ratio for each dosed arm versus placebo, in baseline score high and baseline score low groups.
Boxplots for baseline protein level by response were generated with a horizontal line indicating the median protein level at baseline. For each treatment arm, a two-sample t-test was performed to test whether mean baseline serum protein level was different in responders versus non-responders. A Wilcoxon rank sum test (Mann-Whitney U test) was also performed to evaluate the difference in median serum protein level between responders and non-responders. Further, barplots of ACR20 and PASI75 response rate at week 16 for each treatment arm were generated for all subjects (protein level high and protein level low subjects, dichotomized according to median baseline level). Line plots of ACR20 and PASI75 response rate over time for each treatment arm were generated for protein level high and protein level low groups. Logistic regression models were also fit to evaluate associations between baseline protein levels and clinical outcome.
For certain analyses described herein, patients were dichotomized by median values (e.g., of the proteins listed above or other measures) into “high” and “low” groups, such that the high group had values above the median and the low group had values less than or equal to the median.
In addition, logistic regression models were fit for response measures ACR20 and PASI75, to generate the odds ratio of each of the deucravacitinib treatment arms versus placebo, in BD2-high and BD2-low groups. The following logistic regression models were used: • For ACR20 response status: ACR20 (Y/N)=treatment arm+BD2 group+treatment arm*BD2 group+TNF-inhibitor use+baseline weight (continuous). • For PASI75 response status: PASI75 (Y/N)=treatment arm+BD2 group+treatment arm*BD2 group+TNF-inhibitor use+baseline weight (continuous). […]

## [2H]C([2H])([2H])NC(=O)c1nnc(NC(=O)C2CC2)cc1Nc1cccc(-c2ncn(C)n2)c1OC [deucravacitinib, 6-(cyclopropanecarboxamido)-4-((2-methoxy-3-(1-methyl-1H-1,2,4-triazol-3-yl)phenyl)amino)-N-(methyl-d3)pyridazine-3-carboxamide]
PASI75 responder at week 16, above median baseline IL-19 level
  Number of subjects: 20
PASI75 responder at week 16, below baseline PASI median 6.6
  Number of subjects: 11
PASI75 responder at week 16, below median baseline BD2 level
  Number of subjects: 19
PASI75 responder at week 16, below median baseline IL-17A level
  Number of subjects: 12
PASI75 responder at week 16, below median baseline IL-19 level
  Number of subjects: 10
PASI75 responder, BD2-high-PASI-high
  Number of subjects: 13
PASI75 responder, BD2-high-PASI-low
  Number of subjects: 7
PASI75 responder, BD2-low-PASI-high
  Number of subjects: 6
PASI75 responder, BD2-low-PASI-low
  Number of subjects: 4
PASI75 responder, IL-17A-high-PASI-high
  Number of subjects: 10
PASI75 responder, IL-17A-high-PASI-low
  Number of subjects: 8
PASI75 responder, IL-17A-low-PASI-high
  Number of subjects: 9
PASI75 responder, IL-17A-low-PASI-low
  Number of subjects: 3
PASI75 responder, IL-19-high-PASI-high
  Number of subjects: 12
PASI75 responder, IL-19-high-PASI-low
  Number of subjects: 8
PASI75 responder, IL-19-low-PASI-high
  Number of subjects: 7
PASI75 responder, IL-19-low-PASI-low
  Number of subjects: 3
All patients, 6 mg QD vs placebo, not adjusted for baseline disease activity
  Odds Ratio, PASI75 response status: 2.88
All patients, 6 mg QD vs placebo, week 16
  Odds Ratio for PASI75 response: 2.88
All patients, 6 mg QD vs placebo, week 16, adjusted for baseline PASI score
  Odds Ratio, PASI75 response status: 3.052 and 3.05
All patients, 12 mg QD vs placebo, not adjusted for baseline disease activity
  Odds Ratio, PASI75 response status: 5.781 and 5.78
All patients, 12 mg QD vs placebo, week 16
  Odds Ratio for PASI75 response: 5.781
All patients, 12 mg QD vs placebo, week 16, adjusted for baseline PASI score
  Odds Ratio, PASI75 response status: 6.494 and 6.49
All patients, deucravacitinib treatment arms combined vs placebo, week 16
  Odds Ratio for PASI75 response: 3.998
All patients, treatment arms combined vs placebo
  Odds Ratio, PASI75 response status: 3.998
BD2-high group, 6 mg QD and 12 mg QD vs placebo arm (FIG. 7)
  PASI75 response rate at week 16: higher in both 6 mg QD and 12 mg QD treatment arms compared to the placebo arm
BD2-high-PASI-high, 6 mg QD vs placebo, week 16
  Odds Ratio for PASI75 response: 29.67
BD2-high-PASI-high, 12 mg QD vs placebo, week 16
  Odds Ratio for PASI75 response: 43.084
BD2-high-PASI-low, 6 mg QD vs placebo, week 16
  Odds Ratio for PASI75 response: 2.331
BD2-high-PASI-low, 12 mg QD vs placebo, week 16
  Odds Ratio for PASI75 response: 10.995
BD2-low-PASI-high, 6 mg QD vs placebo, week 16
  Odds Ratio for PASI75 response: 0.825
BD2-low-PASI-high, 12 mg QD vs placebo, week 16
  Odds Ratio for PASI75 response: 7.787
BD2-low-PASI-low, 6 mg QD vs placebo, week 16
  Odds Ratio for PASI75 response: 1.093
BD2-low-PASI-low, 12 mg QD vs placebo, week 16
  Odds Ratio for PASI75 response: 0.967
BD2 high (baseline above median 9,265 ng/L), 6 mg QD vs placebo, week 16
  Odds Ratio for PASI75 response: 10.905
BD2 high (baseline above median 9,265 ng/L), 12 mg QD vs placebo, week 16
  Odds Ratio for PASI75 response: 24.118
BD2 high, treatment arms combined vs placebo, week 16
  Odds Ratio for PASI75 response: 15.415
BD2 low, 6 mg QD vs placebo, week 16
  Odds Ratio for PASI75 response: 0.938
BD2 low, 12 mg QD vs placebo, week 16
  Odds Ratio for PASI75 response: 1.695
BD2 low, treatment arms combined vs placebo, week 16
  Odds Ratio for PASI75 response: 1.274
Baseline PASI high (above median 6.6), 6 mg QD vs placebo, week 16
  Odds Ratio for PASI75 response: 6.94 and 6.937
Baseline PASI high (above median 6.6), 12 mg QD vs placebo, week 16
  Odds Ratio for PASI75 response: 15.75
Baseline PASI low (at or below median 6.6), 6 mg QD vs placebo, week 16
  Odds Ratio for PASI75 response: 1.26 and 1.258
Baseline PASI low (at or below median 6.6), 12 mg QD vs placebo, week 16
  Odds Ratio for PASI75 response: 2.454
CRP high, 6 mg QD vs placebo
  Odds Ratio, PASI75 response status: 3.54
CRP high, 12 mg QD vs placebo
  Odds Ratio, PASI75 response status: 9.78
CRP high, treatment arms combined vs placebo
  Odds Ratio, PASI75 response status: 5.405
CRP level above median and baseline PASI score above median, 6 mg QD vs placebo, week 16
  Odds Ratio for PASI75 response: 18.381
CRP low, 6 mg QD vs placebo
  Odds Ratio, PASI75 response status: 2.12
CRP low, 12 mg QD vs placebo
  Odds Ratio, PASI75 response status: 3.72
CRP low, treatment arms combined vs placebo
  Odds Ratio, PASI75 response status: 2.840
CRP-high-PASI-high, 6 mg QD vs placebo
  Odds Ratio, PASI75 response status: 18.381
